Laboratory results from US9695133B2, “Quinazolinone-based oncogenic-RAS-selective lethal compounds and their use” (THE TRUSTEES OF COLUMBIA UNIVERSITY IN THE CITY OF NEW YORK, priority 2012, dated 2017).
pEC50: −log10 of the molar value. Like-named read-outs stand apart in the source and are kept apart here.

Experiments:
[1] = system: BJeH, BJeHLT, BJeLR and DRD cells; type: cell-based; details: for Selectivity score: EC50 (BJeH)/EC50 (BJeLR); for RSL phenotype (oncogenic-RAS-selective lethality): four BJ-derived cell lines, with and without HRAS G12V
BJeLR cells = assay: RSL testing: growth inhibition (alamar blue) in BJeLR cells; type: cell-based; details: Homo sapiens
Procedure: Cell viability was determined using alamar blue and percent growth inhibition computed as described previously (Id.).

GFP-ALOX5 [2] = assay: GFP-ALOX5 translocation in BJ-derived cell lines; type: cell-based, human
Procedure: (§1) A cDNA of ALOX5 (GeneBank ID: BC130332.1) was cloned into a pBabe-puro vector to express GFP fused ALOX5 (N-terminal GFP fusion) in cells. The plasmid was transfected into PLAT-GP cells (Cell Biolabs Inc., cat # RV-103, San Diego, Calif.) along with a pVSV-G helper plasmid to produce retrovirus harboring the expression plasmid. 0.2 million target cells (BJeH, BJeHLT, BJeLR or HT-1080 cells) were seeded in 10 cm tissue culture dishes and incubated in the tissue culture incubator for 1 day. A frozen stock of retrovirus solution was thawed at 37° C. for 2 minutes, and polybrene (Sigma, cat. # H9268) was added at a final concentration of 8 μg/mL. Culture medium was replaced with virus/polybrene mix and the culture dish was incubated for two hours with rocking every 30 minutes. After 2 hours, 10 mL of growth media was added to culture dish, and the culture was incubated further for 2 days. Cell lines stably expressing GFP-ALOX5 protein were selected using 1.5 μg/mL puromycin and used for the GFP-ALOX5 translocation assay.
ALOX5 is one of the six human ALOX genes and plays a critical role in leukotriene synthesis. In the basal state, the ALOX5 protein remains in the nucleus; however, upon activation, it translocates to the nuclear membrane (Chen et al., 2001). […] Second, calcium chelators were not effective in suppressing erastin-induced cell death (Wolpaw et al., 2011).

HT-1080 cells [3] = assay: Cell death rescue by ALOX and COX inhibitors in HT-1080 cells; type: cell-based, human; details: for suppression of erastin-induced cell death: inhibitor concentrations of Table 2; for suppression of cell death induced by RSL compounds / suppression of cell death induced by non-RSL compounds: HT-1080 cells, 10 μM BAI or 50 μM ZIL, 24 hours
Procedure: HT-1080 cells were seeded in 384-well plates, treated with the indicated amount of compounds with or without 10 μM of BAI or 50 μM of ZIL for 24 hours. The percent growth inhibition was determined using alamar blue.
Lethal compounds were added to HT-1080 cells in the presence or absence of ALOX or COX inhibitors in a 2-fold dilution series. The concentrations of the inhibitors are listed along with vendor information in Table 2. Cell viability was determined using alamar blue and percent growth inhibition calculated as described above.

GPX4 = GPX4 knockdown (siGPX4) in HT-1080 cells
GFP-ALOX5 [4] = assay: GFP-ALOX5 translocation in HT-1080 cells; type: cell-based, human
Procedure: HT-1080 cells stably expressing GFPALOX5 were treated with the indicated compounds under the conditions detailed in FIG. 13b. […] Note that digioxin (DIG) did translocate GFP-ALOX5 to the perinuclear membrane region in a small portion of the cell population (arrow). Digioxin is known to increase cellular calcium concentration that can translocate GFP-ALOX5, similarly to ionomycin. Scale bars, 60 μm.
as §1
Next, GFP-ALOX5-expressing HT-1080 cells were treated with these non-RSL and RSL compounds and changes in the location of GFP-ALOX5 were monitored as a measure of ALOX protein activation. […] Digoxin is known to elevate intracellular calcium (McGarry et al., 1993), which is likely to cause the translocation of GFP-ALOX5, similar to ionomycin. Note that ionomycin and digoxin are not RSL compounds and induce translocation of GFP-ALOX5 non-specifically in the BJ-derived cell lines (FIGS. 7 and 13). The results highlight the importance of selective ALOX activation for the induction of the RSL phenotype.

HT-1080 cells [5] = details: 24 hours
U-2 OS cells = assay: U-2 OS cell viability (alamar blue) with TBHP or NAC; type: cell-based
[6] = cell line not in head, footnote names EC50 (BJeLR), read-out: EC50

## CC(C)Oc1ccc(CNCCCN(C)C)cc1-n1c(CN2CCN(C(=O)COc3ccc(Cl)cc3)CC2)nc2ccccc2c1=O [Compound 22]
[1]
  Selectivity score: 3.3
BJeLR cells; BJeLR, read-out: EC50 (BJeLR)
  pEC50: 5.64

## CC(C)Oc1ccc(CN(C)CCC#N)cc1-n1c(CN2CCN(C(=O)COc3ccc(Cl)cc3)CC2)nc2ccccc2c1=O [Compound 19]
[1]
  Selectivity score: 5.1
BJeLR cells; BJeLR, read-out: EC50 (BJeLR)
  pEC50: 6.59

## CC(C)Oc1ccc(CN2CCN(CCO)CC2)cc1-n1c(CN2CCN(C(=O)COc3ccc(Cl)cc3)CC2)nc2ccccc2c1=O [Compound 23]
[1]
  Selectivity score: 2.8
BJeLR cells; BJeLR, read-out: EC50 (BJeLR)
  pEC50: 5.92

## CC(C)Oc1c(CN2CCOCC2)cccc1-n1c(CN2CCN(C(=O)COc3ccc(Cl)cc3)CC2)nc2ccccc2c1=O [Compound 51]
BJeLR cells; [6]
  pEC50: 5.93

## CC(C)Oc1ccncc1-n1c(CN2CCN(C(=O)COc3ccc(Cl)cc3)CC2)nc2ccccc2c1=O [PYR, 2-((4-(2-(4-chlorophenoxy)ethanoyl)piperazin-1-yl)methyl)-3-(4-isopropoxypyridin-3-yl)quinazolin-4(3H)-one]
[1]
  RSL phenotype (oncogenic-RAS-selective lethality): did not display lethality

## C[C@H](CCC(=O)O)C[C@H](C)C[C@H](C)C(=O)/C=C(\O)[C@H](C)C[C@H](C)C/C=C/[C@@H](C)[C@@H](O)[C@@H](C)[C@@H](O)C[C@@H]1CC[C@@](C)([C@H]2CC[C@@](C)([C@@H](C)O)O2)O1 [ionomycin]
GFP-ALOX5 [2]
  GFP-ALOX5 translocation to the nuclear membrane: induced localization of GFP-ALOX5 to the nuclear membrane in all BJ-derived cell lines

## CCN(CC)Cc1ccc(OC(C)C)c(-n2c(CN3CCN(C(=O)COc4ccc(Cl)cc4)CC3)nc3ccccc3c2=O)c1 [Compound 15]
[1]
  Selectivity score: 4.1
BJeLR cells; BJeLR, read-out: EC50 (BJeLR)
  pEC50: 5.77

## COc1ccc2c(c1)c(CC(=O)O)c(C)n2C(=O)c1ccc(Cl)cc1 [Indomethacin]
HT-1080 cells [3]
  suppression of erastin-induced cell death: only minimally effective in suppressing erastin lethality

## O=[N+]([O-])c1ccc(Cl)c(Cl)c1 [DCNB]
[1]
  RSL phenotype (oncogenic-RAS-selective lethality): none of the other anti-oxidant targeting compounds displayed an RSL phenotype

## Vitamin E [Vit. E]
GPX4
  rescue of siGPX4-induced cell death: rescued

## CN[C@@H]1C[C@H]2O[C@@](C)([C@@H]1OC)n1c3ccccc3c3c4c(c5c6ccccc6n2c5c31)C(=O)NC4 [STS, Staurosporine]
GFP-ALOX5 [4]
  GFP-ALOX5 translocation to the nuclear membrane: did not

## CC(C)Oc1ccc(N2CCN(C)CC2)cc1-n1c(CN2CCN(C(=O)COc3ccc(Cl)cc3)CC2)nc2ccccc2c1=O [Compound 17]
[1]
  Selectivity score: 7.3
BJeLR cells; BJeLR, read-out: EC50 (BJeLR)
  pEC50: 6.05

## CC(c1cc2ccccc2s1)N(O)C(N)=O (stereo not drawn) [Zileuton]
GPX4; 10 μM U0126, 100 μM Vit. E, 100 μM DFOM, 50 μM ZIL
  rescue of siGPX4-induced cell death: rescued
HT-1080 cells [3]
  suppression of cell death induced by RSL compounds: strongly suppressed cell death induced by all RSL compounds
  suppression of cell death induced by non-RSL compounds: not able to suppress cell death induced by eleven non-RSL compounds
  suppression of erastin-induced cell death: strongly suppressed erastin-induced cell death

## COCCN(CCOC)Cc1ccc(OC(C)C)c(-n2c(CN3CCN(C(=O)COc4ccc(Cl)cc4)CC3)nc3ccccc3c2=O)c1 [Compound 18]
[1]
  Selectivity score: 5.9
BJeLR cells; BJeLR, read-out: EC50 (BJeLR)
  pEC50: 6.85

## N[C@@H](CCC(=O)N[C@@H](CS)C(=O)NCC(=O)O)C(=O)O [GSH, reduced glutathione]
HT-1080 cells [5]; 1 mM GSH
  rescue from erastin lethality by GSH supplementation: rescued cells from erastin lethality

## CCN(CC)C(=S)S [DETC]
[1]
  RSL phenotype (oncogenic-RAS-selective lethality): none of the other anti-oxidant targeting compounds displayed an RSL phenotype

## CCc1ccc(/C=C2\SC(=S)N(CCC(=O)NCCCN3CCOCC3)C2=O)cc1 [DPI2]
GFP-ALOX5 [4]
  GFP-ALOX5 translocation to the nuclear membrane: translocated GFP-ALOX5 to the nuclear membrane

## c1ccc2c(c1)SCc1c-2[nH]c2ccccc12 [PD-146176]
HT-1080 cells [3]
  suppression of erastin-induced cell death: strongly suppressed erastin-induced cell death

## Nc1nc(CCl)nc(Nc2ccc3ccccc3c2)n1 [DPI17]
GFP-ALOX5 [4]
  GFP-ALOX5 translocation to the nuclear membrane: translocated GFP-ALOX5 to the nuclear membrane

## C[C@H]1O[C@@H](O[C@H]2[C@@H](O)C[C@H](O[C@H]3[C@@H](O)C[C@H](O[C@H]4CC[C@@]5(C)[C@H](CC[C@@H]6[C@@H]5C[C@@H](O)[C@]5(C)[C@@H](C7=CC(=O)OC7)CC[C@]65O)C4)O[C@@H]3C)O[C@@H]2C)C[C@H](O)[C@@H]1O [digoxin, Digoxin]
GFP-ALOX5 [4]
  GFP-ALOX5 translocation to the nuclear membrane: induced GFP-ALOX5 translocation

## CC(C)Oc1ccc(C=O)cc1-n1c(CN2CCN(C(=O)COc3ccc(Cl)cc3)CC2)nc2ccccc2c1=O [AE, 3-(2-((4-(2-(4-chlorophenoxy)ethanoyl)piperazin-1-yl)methyl)-4-oxoquinazolin-3(4H)-yl)-4-isopropoxybenzaldehyde]
[1]
  RSL phenotype (oncogenic-RAS-selective lethality): retained the RSL phenotype

## CC(C)Oc1ccc(CNCCOCCO)cc1-n1c(CN2CCN(C(=O)COc3ccc(Cl)cc3)CC2)nc2ccccc2c1=O [Compound 24]
[1]
  Selectivity score: 2.5
BJeLR cells; BJeLR, read-out: EC50 (BJeLR)
  pEC50: 5.68

## CC(C)c1onc(C(=O)N2CCN(C(c3ccccc3)c3ccccc3)CC2)c1[N+](=O)[O-] [DPI10]
GFP-ALOX5 [4]
  GFP-ALOX5 translocation to the nuclear membrane: translocated GFP-ALOX5 to the nuclear membrane

## O=c1cc(-c2ccccc2)oc2cc(O)c(O)c(O)c12 [BAI, Baicalein]
HT-1080 cells [3]
  suppression of cell death induced by RSL compounds: strongly suppressed cell death induced by all RSL compounds
  suppression of cell death induced by non-RSL compounds: not able to suppress cell death induced by eleven non-RSL compounds
  suppression of erastin-induced cell death: strongly suppressed erastin-induced cell death

## CN(C)C(=O)/N=N/C(=O)N(C)C [DIA]
[1]
  RSL phenotype (oncogenic-RAS-selective lethality): none of the other anti-oxidant targeting compounds displayed an RSL phenotype

## N#CC(=C(/N)Sc1ccccc1N)/C(C#N)=C(\N)Sc1ccccc1N [Compound U0126]
GPX4
  rescue of siGPX4-induced cell death: rescued

## CC(C)Oc1ccc(CN2CCOCC2)cc1-n1c(CN2CCN(C(=O)COc3ccc(Cl)cc3)CC2)nc2ccccc2c1=O [Compound 40, 2-((4-(2-(4-chlorophenoxy)ethanoyl)piperazin-1-yl)methyl)-3-(2-isopropoxy-5-(morpholinomethyl)phenyl)quinazolin-4(3H)-one]
BJeLR cells; BJeLR, read-out: EC50 (BJeLR)
  pEC50: 6.89
BJeLR cells; [6]
  pEC50: 6.89

## Nc1nc[nH]n1 [ATZ]
[1]
  RSL phenotype (oncogenic-RAS-selective lethality): none of the other anti-oxidant targeting compounds displayed an RSL phenotype

## CC(=O)N[C@@H](CS)C(=O)O [NAC, N-acetyl-cysteine]
U-2 OS cells
  rescue from erastin lethality by NAC supplementation: rescued cells from erastin lethality

## lysophosphatidyl choline [lyso-PC]
HT-1080 cells [5]
  effect of lyso-PC on erastin-induced cell death: modestly sensitized cells to erastin-induced cell death
[1]; lyso-PC alone, 24 hours
  differential cytotoxicity between BJeH and BJeLR: did not show differential cytotoxicity

## CC(C)Oc1ccc(CN(C)CCO)cc1-n1c(CN2CCN(C(=O)COc3ccc(Cl)cc3)CC2)nc2ccccc2c1=O [Compound 21]
[1]
  Selectivity score: 3.7
BJeLR cells; BJeLR, read-out: EC50 (BJeLR)
  pEC50: 6.44

## N#CC(=Cc1ccc(O)c(O)c1)C(=O)OCC=Cc1ccccc1 [CDC, cinnamyl-3,4-dihydroxy-a-cyanocinnamate]
HT-1080 cells [3]
  suppression of erastin-induced cell death: strongly suppressed erastin-induced cell death

## CC(C)Oc1ccccc1-n1c(CN2CCN(C(=O)c3ccc(Cl)cc3)CC2)nc2ccccc2c1=O [dMK, 2-((4-(4-chlorophenylcarbonyl)piperazin-1-yl)methyl)-3-(2-isopropoxyphenyl)quinazolin-4(3H)-one]
[1]
  RSL phenotype (oncogenic-RAS-selective lethality): did not display lethality
